Data set [1] addresses T1, bovine serum albumin (BSA) (Bos taurus, UniProt P02769).
T1 construct: purchased Sigma-Aldrich (MO, USA)
Kind of data set: Protein precipitation capacity (PPC), turbidimetric well-plate reader assay with BSA, log-normal dose–response model. The class given is biochemical. The following applies: SE in parentheses; for ED90 (mM) / EC50: BSA 0.1 mM; for EC50: concentration giving 50% of maximal absorbance (420 nm haze), read-out: ED50 (the source's name); for slope: slope parameter of log-normal dose–response model. The protocol:
(§1) PPC was measured by using the turbidimetric well-plate reader assay of Engström et al. (2019), with few modifications to the volumes of the reactants and to the number of replicates, for instance. The analyzes of the supernatants were done following Engström et al. (2022).[21] Briefly, 75 μL of BSA solution and 75 μL of the solutions of compounds 2–14 were pipetted to well plates, and the intensity of the forming haze was measured periodically at 420 nm using a well-plate reader. The PPC of the PC analogue 1 was not measured because it was not soluble in suitable solvents. The reactions were monitored for 30 min, and the highest intensities were recorded. A single background measurement was done at each concentration with all the components in the wells but the BSA. The reactions were done in triplicates (and in duplicates with PC C1), and the concentrations of the compounds 2–14 in the reaction mixtures were 0.25 0.65, 1.05, 1.45, 1.85, and 2.25 mM. The concentration of the BSA was kept constant at 0.1 mM. Therefore, the tested molar ratios to BSA were 2.5:1, 6.5:1, 10.5:1, 14.5:1, 18.5:1, and 22.5:1. After the 30 min, the supernatants and precipitates of the replicates were combined in a 1.5 mL Eppendorf tube and separated by centrifuging. The supernatants were then analyzed by UPLC–DAD using the shorter phenyl column (section 2.4) to quantify the leftover compounds 2–14 and BSA. Leftover BSA was quantified using a separately prepared linear calibration curve (1–125 μM), and the compounds 2–14 were quantified by analyzing the background solutions from the well-plate reader assay and constructing a calibration curve from these analyzes. BSA was quantified at 280 nm and compounds 2–14 at 280–320 nm. The wavelength of maximal UV absorption for compounds 2–14 could not be utilized in quantification because the diode array detector was saturated at the optimal wavelengths due to the high concentrations used in the well-plate reader assay. Therefore, off-optimal wavelengths were chosen for quantification separately for each compound 2–14 to reduce intensities and to obtain linear fits for calibration curves.
All statistical analyzed were performed with R (version 4.2.2) in the integrated development environment Rstudio (version 2022.12.0.353).[23],[24] The PPC data was fitted with a dose–response model using the package drc.[25] Various models, e.g., logit and log-normal models, were compared using the mselect function, and the best fitting model was chosen based on the Akaike’s information criterion and residual error when comparing all models, and log-likelihood was used when comparing nested models. All compounds were assumed to have the same upper and lower asymptotes; the former was estimated from the experimental data, and the latter was fixed at zero.

A short description of data set [2]: Octanol–water partition, shake-flask method. It is filed as physicochemical. Particulars: 200 μM, n-octanol/water, 2 h mixing, SE in parentheses; for logP at 2 h: read-out: log P (log10KOW). As to the method: The shake-flask method was done using 2 mL Eppendorf tubes and three replicates. […] After mixing, aliquots of 500 μL were transferred to new Eppendorf tubes, and 500 μL of n-octanol was added that had been saturated with water. The solvent systems were mixed in a vortex mixer for 2 h, and then both the water and the n-octanol layers as well as the initial water solution were analyzed by UPLC–DAD using the shorter phenyl column (section 2.4). The chromatograms were integrated using TargetLynx software (version 4.2), and the octanol–water partition coefficient, log P, was calculated as the log10 of the ratio of area in n-octanol phase to the area in water phase. Recovery % was calculated by summing the areas in both phases and dividing the summation with the area measured from the initial water phase.

The nature of data set [3]: Stability in phosphate buffered saline. The class given is physicochemical. Particulars: for half-life at 150 μM: phosphate buffered saline, read-out: half-life (t1/2); for half-life at 150 μM / half-life (t1/2): first-order kinetics, UV 280 nm, 150 μM; for starting material remaining (in words): after 26 h incubation in PBS; for stability in phosphate buffered saline (in words): first time point, approx. 15 min after adding PBS. The protocol: The stabilities of the compounds were measured in PBS, which was prepared from commercially available tablets that were dissolved in ultrapure water. The phosphate concentration was 0.01 M, the pH was 7.4, and the potassium and sodium chloride concentrations were 0.0027 and 0.137 M, respectively. […] The compounds were dissolved in 2 mL of the PBS solution in Eppendorf tubes, vortexed for approximately 15 min, and filtered through a 0.2 μm PTFE filter to a 2 mL UPLC vial. The solutions were analyzed with the UPLC-DAD-HESI-Orbitrap-MS instrument using the longer phenyl column (section 2.4), and repeated injections were done every 47.5 min for approximately 12 h. […] The UV chromatograms at 280 nm were integrated using the QuanBrowser module in Xcalibur software (version 4.1.31.9), and the main degradation products were identified in QualBrowser by their high-resolution mass spectra and UV spectra. With each compound, the measured areas were transformed to proportional areas by dividing all areas with the initial area in the first injection of the time series, and the data was further loge transformed and fitted with first-order linear regression curves. The regression curves were supplemented with 95% confidence intervals to visualize the uncertainty in the fitted curves. The half-lives were calculated from the slope (k) parameters of the linear regression model using the following equation: [drawing 1]

Data set [4] can be described thus: Octanol–water partition, shake-flask method. It is filed as physicochemical. Particulars: for logP / KOW: tentative values, experiment shorter than two hours because the compounds degraded; for logP: read-out: log P (log10KOW).
The target of data set [5] is T1, bovine serum albumin (BSA). As to the kind of experiment: UPLC–DAD analysis of supernatants from the PPC experiment (proportion of precipitated BSA). The class given is biochemical. As to the method: as §1
The mark [6] stands for this setting: pH 7.4, PBS pH 7.4, 0.01 M phosphate.

Structures are written as SMILES. Read-outs that look alike come from different tables or passages of the source.

T1 sequence (P02769 25-607): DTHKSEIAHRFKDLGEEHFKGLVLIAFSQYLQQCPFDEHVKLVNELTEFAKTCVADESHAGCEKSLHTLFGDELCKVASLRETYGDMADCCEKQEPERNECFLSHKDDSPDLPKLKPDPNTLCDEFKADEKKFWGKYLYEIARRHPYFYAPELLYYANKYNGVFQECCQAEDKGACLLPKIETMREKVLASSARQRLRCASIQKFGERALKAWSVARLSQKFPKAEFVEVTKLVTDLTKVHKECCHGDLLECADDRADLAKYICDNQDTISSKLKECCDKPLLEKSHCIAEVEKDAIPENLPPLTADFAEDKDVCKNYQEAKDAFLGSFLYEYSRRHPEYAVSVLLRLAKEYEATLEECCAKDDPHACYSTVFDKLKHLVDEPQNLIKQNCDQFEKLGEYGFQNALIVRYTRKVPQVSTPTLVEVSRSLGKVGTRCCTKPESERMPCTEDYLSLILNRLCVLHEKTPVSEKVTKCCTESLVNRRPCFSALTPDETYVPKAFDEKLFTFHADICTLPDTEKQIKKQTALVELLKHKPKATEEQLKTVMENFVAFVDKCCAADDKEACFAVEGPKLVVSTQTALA

Consider `Oc1ccc([C@H]2Oc3c(Cc4c(O)cc(O)c5c4O[C@H](c4ccc(O)c(O)c4)[C@H](O)C5)c(O)cc(O)c3C[C@H]2O)cc1O` [Compound 2, Epicatechin–methylene–epicatechin], for which, in data set [1], the “ED90 (mM)” value is recorded as 3.45 (0.10) mM, the EC50 is 2.18 mM and the slope is recorded as 2.80 (0.13). Besides, in data set [2], the KOW is listed as 1.46 (0.01) and the logP at 2 h came to 0.16. The half-life at 150 μM in data set [3] (setting [6]) was 123 min.
In the case of `Oc1ccc([C@H]2Oc3c(c(O)cc(O)c3C(c3ccco3)c3c(O)cc(O)c4c3O[C@H](c3ccc(O)c(O)c3)[C@H](O)C4)C[C@H]2O)cc1O` [Compound 6, Epicatechin–furanmethine–epicatechin], in data set [1], the “ED90 (mM)” value was 3.32 (0.09) mM, the EC50 came out at 1.83 mM and the slope is reported as 2.15 (0.08). In data set [2], the KOW was 2.08 (0.00) and the logP at 2 h was determined as 0.32. Moreover, in data set [3] (setting [6]), the half-life at 150 μM amounted to 349 min.
In the case of `Oc1ccc([C@H]2Oc3c(c(O)cc(O)c3C(c3ccco3)c3c(O)cc(O)c4c3O[C@H](c3ccc(O)c(O)c3)[C@@H](O)C4)C[C@@H]2O)cc1O` [Compound 5, Catechin–furanmethine–catechin], in data set [1], the “ED90 (mM)” value is 2.58 (0.06) mM, the EC50 was found to be 1.39 mM and the slope is listed as 2.08 (0.07). Also, in data set [2], the KOW is on record as 5.28 (0.02) and the logP at 2 h is 0.72. For the same compound, the half-life at 150 μM in data set [3] (setting [6]) amounted to 531 min.
Regarding `Oc1ccc(C(c2c(O)cc(O)c3c2O[C@H](c2ccc(O)c(O)c2)[C@@H](O)C3)c2c(O)cc(O)c3c2O[C@H](c2ccc(O)c(O)c2)[C@@H](O)C3)cc1O` [Compound 7, Catechin–catecholmethine–catechin], in data set [1], the “ED90 (mM)” value was 2.53 (0.07) mM, the EC50 turned out to be 1.29 mM and the slope is 1.90 (0.06). In data set [2], the KOW was 0.79 (0.00) and the logP at 2 h was -0.1. The “half-life (t1/2)” value in data set [3] (PBS pH 7.4, 0.01 M phosphate) lay within 55 to 84 min. Further, the half-life at 150 μM in data set [3] (setting [6]) was 55 min.
`Oc1ccc([C@H]2Oc3c(Cc4c(O)cc(O)c5c4O[C@H](c4ccc(O)c(O)c4)[C@@H](O)C5)c(O)cc(O)c3C[C@@H]2O)cc1O` [Compound 1]: in data set [2], the KOW was 5.00 (0.05) and the logP at 2 h amounted to 0.7. Besides, in data set [3] (setting [6]), the half-life at 150 μM turned out to be 207 min.
Take `Oc1cc(O)c2c(c1)O[C@H](c1ccc(O)c(O)c1)[C@@H](O)C2` [Compound 15, catechin, reference compound]: in data set [2], the KOW is 2.61 (0.03). The “starting material remaining (in words)” value in data set [3] was “majority of the starting materials remained”. For the same compound, in data set [3] (PBS pH 7.4, 0.01 M phosphate), the half-life at 150 μM was 1340 min. Further, the “log P (log10KOW)” value in data set [4] (200 μM, n-octanol/water, 2 h mixing, SE in parentheses) is recorded as 0.42 (0.00).
Turning to `Oc1ccc([C@H]2Oc3c(c(O)cc(O)c3C(c3cc(O)c(O)c(O)c3)c3c(O)cc(O)c4c3O[C@H](c3ccc(O)c(O)c3)[C@H](O)C4)C[C@H]2O)cc1O` [Compound 10], in data set [1], the “ED90 (mM)” value was 2.41 (0.05) mM, the EC50 came out at 1.44 mM and the slope was 2.48 (0.08). For the same compound, the “stability in phosphate buffered saline (in words)” value in data set [3] is on record as “completely degraded already at the first time point”. In addition, the half-life at 150 μM in data set [3] (setting [6]) was under 15 min. Moreover, in data set [4] (n-octanol/water), the logP is -1.18. Also, in data set [4], the KOW is listed as 0.07 (0.00).
With `O=C(O)C(c1c(O)cc(O)c2c1O[C@H](c1ccc(O)c(O)c1)[C@H](O)C2)c1c(O)cc(O)c2c1O[C@H](c1ccc(O)c(O)c1)[C@H](O)C2` [Compound 4, Epicatechin–carboxymethine–epicatechin], in data set [1], the “ED90 (mM)” value is on record as 3.30 (0.08) mM, the EC50 stood at 2.03 mM and the slope is listed as 2.64 (0.11). Further, in data set [2], the KOW was 0.02 (0.00) and the logP at 2 h is -1.78. The half-life at 150 μM in data set [3] (setting [6]) came to 420 min.
Regarding `O=C(O)C(c1c(O)cc(O)c2c1O[C@H](c1ccc(O)c(O)c1)[C@@H](O)C2)c1c(O)cc(O)c2c1O[C@H](c1ccc(O)c(O)c1)[C@@H](O)C2` [Compound 3], in data set [1], the “ED90 (mM)” value is on record as 3.34 (0.09) mM, the EC50 was 2.03 mM and the slope is recorded as 2.57 (0.10). Moreover, in data set [2], the KOW was 0.04 (0.00) and the logP at 2 h was -1.37. Moreover, the half-life at 150 μM in data set [3] (setting [6]) came to 376 min.
Consider `Oc1ccc([C@H]2Oc3c(c(O)cc(O)c3C(c3cc(O)c(O)c(O)c3)c3c(O)cc(O)c4c3O[C@H](c3ccc(O)c(O)c3)[C@@H](O)C4)C[C@@H]2O)cc1O` [Compound 9], for which, in data set [1], the “ED90 (mM)” value is 2.61 (0.06) mM, the EC50 is 1.4 mM and the slope is 2.04 (0.06). For the same compound, in data set [3], the “stability in phosphate buffered saline (in words)” value is listed as “completely degraded already at the first time point”. Besides, the half-life at 150 μM in data set [3] (setting [6]) was under 15 min. For the same compound, the logP in data set [4] (n-octanol/water) is -0.85. For the same compound, the KOW in data set [4] is given as 0.14 (0.01).
For the compound `Oc1cc(O)c2c(c1)O[C@H](c1ccc(O)c(O)c1)[C@H](O)C2` [Compound 16, epicatechin, reference compound], in data set [3], the “starting material remaining (in words)” value is “majority of the starting materials remained”. Also, the half-life at 150 μM in data set [3] (PBS pH 7.4, 0.01 M phosphate) was determined as 899 min.
On to `Oc1cc(O)c2c(c1)O[C@H](c1ccc(O)c(O)c1)[C@@H](O)[C@@H]2c1c(O)cc(O)c2c1O[C@H](c1ccc(O)c(O)c1)[C@@H](O)C2` [Compound 11, PC B3, reference compound], for which, in data set [2], the KOW was 0.16 (0.00) and the logP at 2 h was -0.79. For the same compound, the half-life at 150 μM in data set [3] (setting [6]) amounted to 539 min. Besides, in data set [5], the “activity based on the proportions of precipitated BSA (in words)” value is “practically inactive”.
Consider `Oc1ccc(C(c2c(O)cc(O)c3c2O[C@H](c2ccc(O)c(O)c2)[C@H](O)C3)c2c(O)cc(O)c3c2O[C@H](c2ccc(O)c(O)c2)[C@H](O)C3)cc1O` [Compound 8, Epicatechin–catecholmethine–epicatechin], for which, in data set [1], the “ED90 (mM)” value was 2.61 (0.06) mM, the EC50 is 1.5 mM and the slope is 2.30 (0.08). Also, in data set [2], the KOW is on record as 0.34 (0.00) and the logP at 2 h was -0.47. Further, the “half-life (t1/2)” value in data set [3] (PBS pH 7.4, 0.01 M phosphate) lay in the range of 55 to 84 min. Moreover, in data set [3] (setting [6]), the half-life at 150 μM was 84 min.

Values taken from publication PMC10722540, “Red Wine Inspired Chemistry: Hemisynthesis of Procyanidin Analogs and Determination of Their Protein Precipitation Capacity, Octanol–Water Partition, and Stability in Phosphate-Buffered Saline” (Journal of Agricultural and Food Chemistry, 2023).
